{"source": "ChEMBL document CHEMBL5257089", "about": "“Gamabufotalin Induces Apoptosis and Cytoprotective Autophagy through the mTOR Signaling Pathway in Hepatocellular Carcinoma” (J Nat Prod, 2023)", "key": {"Hep 3B2 [1]": {"test_system": "Hep 3B2", "assay": "Induction of autophagic flux in human Hep3B cells harbouring mCherry-egfp-LC3 assessed as increase in yellow puncta ratio at 10 nM by fluorescence imaging based assay", "format": "functional, cell-based"}, "Huh-7 [2]": {"test_system": "Huh-7", "assay": "Induction of apoptosis in human Huh-7 cells assessed as increase in bax level at 10 nM incubated for 48 hrs in presence of gamabufotalin by immunoblot analysis", "format": "functional, cell-based"}, "Hep 3B2 [3]": {"test_system": "Hep 3B2", "assay": "Induction of apoptosis in human Hep3B cells assessed as increase in cleaved PARP level at 10 nM incubated for 48 hrs in presence of gamabufotalin by immunoblot analysis", "format": "functional, cell-based"}, "Huh-7 [4]": {"test_system": "Huh-7", "assay": "Induction of autophagic flux in human Huh-7 cells assessed as increase in number of autophagic vesicles at 10 nM by transmission electron microscopic analysis", "format": "functional, cell-based"}, "Huh-7 [5]": {"test_system": "Huh-7", "assay": "Induction of apoptosis in human Huh-7 cells assessed as late apoptotic cells at 10 nM incubated for 48 hrs by Annexin V-FITC/PI staining based flow cytometry method (reference value: 4.7%)", "format": "functional"}, "Huh-7 [6]": {"test_system": "Huh-7", "assay": "Induction of apoptosis in human Huh-7 cells assessed as increase in cleaved PARP level at 10 nM incubated for 48 hrs in presence of gamabufotalin by immunoblot analysis", "format": "functional, cell-based"}, "Huh-7 [7]": {"test_system": "Huh-7", "assay": "Induction of apoptosis in human Huh-7 cells assessed as late apoptotic cells at 10 nM incubated for 48 hrs in presence of gamabufotalin by Annexin V-FITC/PI staining based flow cytometry method (reference value: 4.7%)", "format": "functional"}, "Huh-7 [8]": {"test_system": "Huh-7", "assay": "Induction of apoptosis in human Huh-7 cells assessed as viable cells at 10 nM incubated for 48 hrs in presence of gamabufotalin by Annexin V-FITC/PI staining based flow cytometry method (reference value: 91.5%)", "format": "functional", "conditions": "read-out: Activity"}, "Hep 3B2 [9]": {"test_system": "Hep 3B2", "assay": "Induction of apoptosis in human Hep3B cells assessed as early apoptotic cells at 10 nM incubated for 48 hrs in presence of gamabufotalin by Annexin V-FITC/PI staining based flow cytometry method (reference value: 1.3%)", "format": "functional"}, "Huh-7 [10]": {"test_system": "Huh-7", "assay": "Induction of apoptosis in human Huh-7 cells assessed as increase in cleaved bax level at 25 nM incubated for 48 hrs in presence of chloroquine by immunoblot analysis", "format": "functional, cell-based"}, "Hep 3B2 [11]": {"test_system": "Hep 3B2", "assay": "Antitumor activity against human Hep3B cells xenografted in nude mouse model assessed as decrease in tumor volume at 5 mg/kg,ip administered every second day for 3 weeks by vernier caliper method", "format": "functional, organism-based"}, "Hep 3B2 [12]": {"test_system": "Hep 3B2", "assay": "Induction of apoptosis in human Hep3B cells assessed as early apoptotic cells at 15 nM incubated for 48 hrs by Annexin V-FITC/PI staining based flow cytometry method (reference value: 3.9%)", "format": "functional"}, "Huh-7 [13]": {"test_system": "Huh-7", "assay": "Induction of apoptosis in human Huh-7 cells assessed as necrotic cells at 25 nM incubated for 48 hrs by Annexin V-FITC/PI staining based flow cytometry method (reference value: 1.0%)", "format": "functional"}, "Hep 3B2 [14]": {"test_system": "Hep 3B2", "assay": "Antitumor activity against human Hep3B cells xenografted in nude mouse model assessed as reduction in Ki-67 index at 5 mg/kg,ip administered every second day for 3 weeks by immunohistochemical analysis", "format": "functional, organism-based"}, "Hep 3B2 [15]": {"test_system": "Hep 3B2", "assay": "Induction of apoptosis in human Hep3B cells assessed as early apoptotic cells at 25 nM incubated for 48 hrs in presence of 4,6-dimorpholino-N-(4-nitrophenyl)-1,3,5-triazin-2-amine by Annexin V-FITC/PI staining based flow cytometry method (reference value: 1.3%)", "format": "functional"}, "Huh-7 [16]": {"test_system": "Huh-7", "assay": "Induction of autophagic flux in human Huh-7 cells harbouring mCherry-egfp-LC3 assessed as reduction in number of yellow puncta ratio at 25 nM incubated for 15 mins in presence of chloroquine by laser scanning confocal microscopic analysis", "format": "functional, cell-based"}, "Huh-7 [17]": {"test_system": "Huh-7", "assay": "Induction of apoptosis in human Huh-7 cells assessed as increase in cleaved PARP level at 25 nM incubated for 48 hrs in presence of chloroquine by immunoblot analysis", "format": "functional, cell-based"}, "Huh-7 [18]": {"test_system": "Huh-7", "assay": "Induction of apoptosis in human Huh-7 cells assessed as upregulation of PARP level […] incubated for 48 hrs in presence of 4,6-dimorpholino-N-(4-nitrophenyl)-1,3,5-triazin-2-amine by immunoblot analysis", "format": "functional, cell-based"}, "Huh-7 [19]": {"test_system": "Huh-7", "assay": "Induction of autophagic flux in human Huh-7 cells assessed as rescue of p62 at 25 uM incubated for 48 hrs in presence of chloroquine by Western blot analysis", "format": "functional, cell-based"}, "Huh-7 [20]": {"test_system": "Huh-7", "assay": "Induction of apoptosis in human Huh-7 cells assessed as viable cells at 25 nM measured after 48 hrs in presence of z-VAD-FMK by annexin V-FITC/Propidium iodide staining based flow cytometric analysis (reference value: 91.7%)", "format": "functional", "conditions": "read-out: Activity"}, "Huh-7 [21]": {"test_system": "Huh-7", "assay": "Induction of apoptosis in human Huh-7 cells assessed as necrotic cells at 25 nM measured after 48 hrs by annexin V-FITC/Propidium iodide staining based flow cytometric analysis (reference value: 0.0%)", "format": "functional"}, "Hep 3B2 [22]": {"test_system": "Hep 3B2", "assay": "Induction of apoptosis in human Hep3B cells assessed as late apoptotic cells at 25 nM incubated for 48 hrs in presence of 4,6-dimorpholino-N-(4-nitrophenyl)-1,3,5-triazin-2-amine by Annexin V-FITC/PI staining based flow cytometry method (reference value: 2.2%)", "format": "functional"}, "Hep 3B2 [23]": {"test_system": "Hep 3B2", "assay": "Induction of autophagic flux in human Hep3B cells harbouring mCherry-egfp-LC3 assessed as reduction in number of red puncta ratio at 25 nM incubated for 15 mins in presence of chloroquine by laser scanning confocal microscopic analysis", "format": "functional, cell-based"}, "Hep 3B2 [24]": {"test_system": "Hep 3B2", "assay": "Antitumor activity against human Hep3B cells xenografted in nude mouse model assessed as downregulation of ULK1 phosphorylation expression expression at 5 mg/kg,ip administered every second day for 3 weeks by Western blot analysis", "format": "functional, organism-based"}, "Hep 3B2 [25]": {"test_system": "Hep 3B2", "assay": "Induction of autophagy in human Hep3B cells assessed as reduction in ULK1 phosphorylation level incubated for 48 hrs by immunoblot method", "format": "functional, cell-based", "conditions": "dose 0-25 nM"}, "Hep 3B2 [26]": {"test_system": "Hep 3B2", "assay": "Induction of autophagy in human Hep3B cells harbouring mCherry-egfp-LC3 assessed as reduction in red puncta ratio at 25 nM incubated for 15 mins in presence of 4,6-dimorpholino-N-(4-nitrophenyl)-1,3,5-triazin-2-amine by laser scanning confocal microscopic analysis", "format": "functional, cell-based"}, "Hep 3B2 [27]": {"test_system": "Hep 3B2", "assay": "Induction of autophagy in human Hep3B cells assessed as reduction in mTOR phosphorylation level incubated for 48 hrs by immunoblot method", "format": "functional, cell-based", "conditions": "dose 0-25 nM"}, "Hep 3B2 [28]": {"test_system": "Hep 3B2", "assay": "Induction of apoptosis in human Hep3B cells assessed as reduction in bcl-2 level […] incubated for 48 hrs in presence of 4,6-dimorpholino-N-(4-nitrophenyl)-1,3,5-triazin-2-amine by immunoblot analysis", "format": "functional, cell-based"}, "Hep 3B2 [29]": {"test_system": "Hep 3B2", "assay": "Induction of apoptosis in human Hep3B cells assessed as increase in cleaved caspase-3 level at 25 nM incubated for 48 hrs in presence of chloroquine by immunoblot analysis", "format": "functional, cell-based"}, "Huh-7 [30]": {"test_system": "Huh-7", "assay": "Induction of apoptosis in human Huh-7 cells assessed as necrotic cells at 25 nM incubated for 48 hrs in presence of 4,6-dimorpholino-N-(4-nitrophenyl)-1,3,5-triazin-2-amine by Annexin V-FITC/PI staining based flow cytometry method (reference value: 1.9%)", "format": "functional"}, "Hep 3B2 [31]": {"test_system": "Hep 3B2", "assay": "Antitumor activity against human Hep3B cells xenografted in nude mouse model assessed as upregulation of LC3I expression at 5 mg/kg,ip administered every second day for 3 weeks by Western blot analysis", "format": "functional, organism-based"}, "Hep 3B2 [32]": {"test_system": "Hep 3B2", "assay": "Induction of apoptosis in human Hep3B cells assessed as increase in cleaved PARP level at 25 nM incubated for 48 hrs in presence of chloroquine by immunoblot analysis", "format": "functional, cell-based"}, "Huh-7 [33]": {"test_system": "Huh-7", "assay": "Inhibition of colony formation in human Huh-7 cells at upto 25 uM incubated for 48 hrs by crystal violet staining based analysis", "format": "functional, cell-based"}}, "note": "The source made the active and inactive calls. No cut-off for these calls is given here.", "data": [{"smiles": "CCN(CC)CCCC(C)Nc1ccnc2cc(Cl)ccc12", "note": "(stereo not drawn) [CHLOROQUINE]", "values": [{"measurement": "Activity", "setting": "Hep 3B2 [1]", "result": "Active"}, {"measurement": "Activity", "setting": "Huh-7 [2]", "result": "Active"}, {"measurement": "Activity", "setting": "Hep 3B2 [3]", "result": "Active"}, {"measurement": "Activity", "setting": "Huh-7 [4]", "result": "Active"}, {"measurement": "Activity", "setting": "Huh-7 [5]", "result": 4.9, "unit": "%"}, {"measurement": "Activity", "setting": "Huh-7 [6]", "result": "Active"}, {"measurement": "Activity", "setting": "Huh-7 [7]", "result": 19.1, "unit": "%"}, {"measurement": "viability at 0.01 µM", "setting": "Huh-7 [8]", "result": 65.4, "unit": "%"}, {"measurement": "Activity", "setting": "Hep 3B2 [9]", "result": 17.9, "unit": "%"}]}, {"smiles": "C[C@]12CC[C@H](O)C[C@H]1CC[C@@H]1[C@@H]2[C@H](O)C[C@]2(C)[C@@H](c3ccc(=O)oc3)CC[C@]12O", "note": "[GAMABUFOTALIN]", "values": [{"measurement": "Activity", "setting": "Huh-7 [10]", "result": "Active"}, {"measurement": "Activity", "setting": "Hep 3B2 [11]", "result": "Active"}, {"measurement": "Activity", "setting": "Hep 3B2 [12]", "result": 6.8, "unit": "%"}, {"measurement": "Activity", "setting": "Huh-7 [13]", "result": 1.1, "unit": "%"}, {"measurement": "Activity", "setting": "Hep 3B2 [14]", "result": "Active"}, {"measurement": "Activity", "setting": "Hep 3B2 [15]", "result": 10.9, "unit": "%"}, {"measurement": "Activity", "setting": "Huh-7 [16]", "result": "Active"}, {"measurement": "Activity", "setting": "Huh-7 [17]", "result": "Active"}, {"measurement": "Activity", "setting": "Huh-7 [18]", "result": "Active"}, {"measurement": "Activity", "setting": "Huh-7 [19]", "result": "Active"}, {"measurement": "viability at 0.025 µM", "setting": "Huh-7 [20]", "result": 89, "unit": "%"}, {"measurement": "Activity", "setting": "Huh-7 [21]", "result": 1.2, "unit": "%"}, {"measurement": "Activity", "setting": "Hep 3B2 [22]", "result": 20.2, "unit": "%"}, {"measurement": "Activity", "setting": "Hep 3B2 [23]", "result": "Active"}, {"measurement": "Activity", "setting": "Hep 3B2 [24]", "result": "Active"}, {"measurement": "Activity", "setting": "Hep 3B2 [25]", "result": "Dose-Dependent Effect"}, {"measurement": "Activity", "setting": "Hep 3B2 [26]", "result": "Active"}, {"measurement": "Activity", "setting": "Hep 3B2 [27]", "result": "Dose-Dependent Effect"}, {"measurement": "Activity", "setting": "Hep 3B2 [28]", "result": "Active"}, {"measurement": "Activity", "setting": "Hep 3B2 [29]", "result": "Active"}, {"measurement": "Activity", "setting": "Huh-7 [30]", "result": 1.7, "unit": "%"}, {"measurement": "Activity", "setting": "Hep 3B2 [31]", "result": "Active"}, {"measurement": "Activity", "setting": "Hep 3B2 [32]", "result": "Active"}, {"measurement": "inhibition", "setting": "Huh-7 [33]", "result": "Active"}]}]}
